pIC50: −log10 of the molar value.
Key:
[1] = system: IL-22 release in human PBMC; test: IL-22 release, human PBMC under Th17 polarization conditions; type: cell-based; details: human PBMC under Th17 polarization condition
Method: An increase in the levels of Th17 dependent cytokine in the peripheral blood of COPD patients as compared to the Th1 and Th2 dependent cytokines has been well documented in a subset of COPD patients. A comparative study was performed under TCR activating conditions to evaluate the potencies of PCCR-1 for inhibition across Th1, Th2 and Th17 dependent cytokines using hPBMCs.
Human whole blood from healthy subjects were procured from Clinical Research Unit, Sanpada. Clinical Research Center Glenmark (Plot No. D, 508, Turbhe, TTC Industrial Area, MIDC, Sanpada, Navi Mumbai, Maharashtra 400705, India). PBMCs were isolated using heparinized blood with Ficoll Histopaque. Briefly, the cells were seeded in 96-well plate pre-coated with human anti-CD3 mAb (10 µg/mL), post 30 min of compound treatment cells were stimulated with human anti-CD28 mAb (2 µg/mL). After 72 h of culture, the supernatant was collected for Th1/Th2 cytokines; IFN-γ, IL-2, IL-4 and IL-10 and measured by ELISA. For Th17 polarization assay, the following cytokine cocktail was used: IL-1β (10 ng/ml), IL-23(10 ng/ml), IL-6 (50 ng/ml), TGF-β1 (3 ng/ml), IL-2 (20U/ml) and supernatants were used for measuring IL-17 and IL-22 by ELISA.

[2] = system: IL-17 in peritoneal macrophages; test: IL-17 release, mouse peritoneal macrophages, LPS; type: cell-based; details: Peritoneal macrophage, n = 2, read-out: IC50, IL-17 inhibition
Method: The peritoneal neutrophils or macrophages were isolated from C57BL/6 male mice or BALB/c female mice (6–8 wks; 18–22 g) injected with 3% or 4% thioglycollate broth. After 4 h or 4 days, RPMI medium was injected into the peritoneal cavity of mouse and peritoneal lavage was collected. The lavage was pooled and spun at 800 rpm for 10 min. The pellet was re-suspended in 1X Gey’s solution for 5 min followed by PBS wash. In case of neutrophils, the isolated cells were seeded in 48 well plate for 1.5 h. After 1.5 h, the supernatant containing peritoneal neutrophils were collected and centrifuged at 2000 rpm for 10 min and the pellet were re-suspended in 2% RPMI. In case of isolated peritoneal macrophages, the cells were seeded in 48 well plate for 3–4 h followed by PBS wash. Both the neutrophils and macrophages were treated with PCCR-1 in 2% RPMI for 1 h followed by stimulation with 10 µg/ml or 5 µg/ml of LPS for 18 h or 24 h. The supernatant collected for IL-17 estimation by ELISA.

hFXR = test: Nuclear receptors: functional assay, hFXR antagonism; type: cell-based, human; details: nuclear receptors: functional assays
Source text: (§1) Based on the homology of the ligand binding domains, 3 different isoforms of ROR (hRORα, hRORβ and hRORγ) are reported. Small variations in the LBD regions possibly lead to differences in competitive binding between the nuclear receptors of the ROR isoforms (Fig. 1b). Similar to the assessment of RORγ binding assay, TR-FRET binding assays were also used to assess the affinity of PCCR-1 for other ROR isoforms. […] This was reconfirmed in cellular functional assays for the selected isoforms and nuclear receptors using Gal4 DBD with luciferase reporter system from Indigo (PA, USA). […] In addition, both cellular agonist and antagonist effects as well as for enzyme activity were evaluated with a known reference compound for each target, using a radiolabeled method (Eurofins Cerep, France, Table 1).

hERG = hERG (Homo sapiens, UniProt Q12809); test: hERG; details: rated moderate
[3] = system: IL-17A release in mouse splenocytes; test: IL-17A release, mouse splenocytes, anti-CD3 + anti-CD28; type: cell-based; details: Splenocyte, anti-CD3 + anti-CD28, n = 13, read-out: Cellular activity: Mouse IC50, IL-17A release
Method: Inhibition of RORγ by PCCR-1 was also estimated in a functional assay by measuring the inhibition of Th17 dependent cytokine IL-17A release in human peripheral blood mononuclear cells (PBMCs), mouse splenocytes and canine PBMC stimulated with their respective anti-CD3 and anti-CD28 antibodies.
Splenocytes were prepared from 6–8 week old BALB/c mice and cells were seeded in 96-well plates coated with mouse anti-CD3 mAb (10 µg/mL). Cells were treated with test compounds for 30 min followed by stimulation with mouse anti- CD28 mAb (3 µg/mL) for 72 h at 37 °C in 5% CO2 incubator. The supernatant was used for estimating mouse IL-17 by ELISA.

Kinases (~ 40 in no) = test: Kinase panel (~ 40); type: biochemical; set-up: key: NSE No significant effect; V wk very weak (very low-level agonist activity seen with mPPARγ); details: at 10 µM
Source text: as §1

Ca Channel (L type) = test: Cerep panel, Ca channel (L type)
Source text: as §1

Chain of hERG (Q12809 whole entry): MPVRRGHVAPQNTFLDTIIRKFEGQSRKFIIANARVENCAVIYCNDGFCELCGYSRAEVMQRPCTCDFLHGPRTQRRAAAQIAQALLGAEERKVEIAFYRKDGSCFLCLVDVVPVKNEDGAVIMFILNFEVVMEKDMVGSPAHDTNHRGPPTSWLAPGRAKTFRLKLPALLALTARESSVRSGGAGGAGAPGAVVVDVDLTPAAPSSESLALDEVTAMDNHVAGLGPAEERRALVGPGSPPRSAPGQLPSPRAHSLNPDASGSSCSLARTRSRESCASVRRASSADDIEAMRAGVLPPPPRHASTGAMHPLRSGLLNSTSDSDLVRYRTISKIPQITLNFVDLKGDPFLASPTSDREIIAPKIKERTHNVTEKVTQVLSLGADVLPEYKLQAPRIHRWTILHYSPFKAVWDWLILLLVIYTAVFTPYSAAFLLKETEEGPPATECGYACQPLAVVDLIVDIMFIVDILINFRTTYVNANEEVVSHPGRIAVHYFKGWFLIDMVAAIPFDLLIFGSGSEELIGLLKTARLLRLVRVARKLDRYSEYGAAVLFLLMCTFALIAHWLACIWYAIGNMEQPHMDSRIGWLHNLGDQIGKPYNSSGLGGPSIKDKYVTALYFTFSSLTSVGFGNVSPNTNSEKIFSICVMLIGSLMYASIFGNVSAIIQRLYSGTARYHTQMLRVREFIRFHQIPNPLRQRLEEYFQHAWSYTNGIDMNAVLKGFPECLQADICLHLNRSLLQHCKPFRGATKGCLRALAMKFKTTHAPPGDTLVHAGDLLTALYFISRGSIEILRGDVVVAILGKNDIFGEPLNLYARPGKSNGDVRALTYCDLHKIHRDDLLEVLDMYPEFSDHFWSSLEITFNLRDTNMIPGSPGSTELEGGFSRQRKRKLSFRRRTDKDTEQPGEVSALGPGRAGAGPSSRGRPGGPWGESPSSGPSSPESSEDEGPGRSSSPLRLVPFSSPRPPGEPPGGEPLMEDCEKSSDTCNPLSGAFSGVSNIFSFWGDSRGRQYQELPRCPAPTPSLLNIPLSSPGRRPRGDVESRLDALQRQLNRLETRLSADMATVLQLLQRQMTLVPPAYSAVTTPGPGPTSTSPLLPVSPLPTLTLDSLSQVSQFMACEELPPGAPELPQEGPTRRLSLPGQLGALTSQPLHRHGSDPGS

CCn1c(C(C)(C)Oc2ccc(F)cc2F)nc2cc(NC(=O)Cc3ccc(S(=O)(=O)CC)cc3)ccc21 [PCCR-1]
ceiling effect for IL-22 release inhibition [1]: 60%
pIC50 ([1]; n = 2, read-out: hIL-22 IC50): 7.36
pIC50 [2]: 5.86
hFXR (antagonism) (hFXR): ~10 µM
pIC50 (hERG): 5.22
pIC50 [3]: 6.12
Kinases (~ 40 in no) (Kinases (~ 40 in no)): NSE at 10 µM
pIC50 (Ca Channel (L type)): 5.59

— publication PMC9130233, “An inhibitor of RORγ for chronic pulmonary obstructive disease treatment” (Scientific Reports, 2022)
